For one molecule, EC50 results are on record in publication PMC5504036, “A tricyclic antidepressant, amoxapine, reduces amyloid-β generation through multiple serotonin receptor 6-mediated targets” (Scientific Reports, 2017).

As a reminder, the EC50 is the concentration needed to bring the measured effect to its halfway point. Higher therefore signals a less potent agent.

This assay concerns the target T1, serotonin receptor 6 (HTR6) (Homo sapiens, UniProt P50406).
T1 construct: human HTR6 expressed by lentivirus in SK-N-SH cells
The assay can be described thus: GloSensor cAMP assay (agonist) in SK-N-SH cells infected with HTR6 lentivirus. It is filed as cell-based. On the technique in general: Cyclic AMP is a second messenger, typically raised through Gs and lowered through Gi signalling.

T1 sequence (P50406 whole entry): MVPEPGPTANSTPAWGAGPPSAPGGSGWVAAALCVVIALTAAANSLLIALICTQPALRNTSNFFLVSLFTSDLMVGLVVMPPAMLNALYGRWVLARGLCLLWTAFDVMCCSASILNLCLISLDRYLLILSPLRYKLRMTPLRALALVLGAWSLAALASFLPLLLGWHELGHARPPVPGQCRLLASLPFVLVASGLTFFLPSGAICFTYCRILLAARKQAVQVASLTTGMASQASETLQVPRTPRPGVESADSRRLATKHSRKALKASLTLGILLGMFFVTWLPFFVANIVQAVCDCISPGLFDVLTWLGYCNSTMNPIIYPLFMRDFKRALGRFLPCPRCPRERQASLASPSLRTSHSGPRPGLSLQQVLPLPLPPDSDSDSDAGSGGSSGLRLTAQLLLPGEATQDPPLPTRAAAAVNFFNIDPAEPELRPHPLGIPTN

In turn, `Cc1[nH]c2ccc(Cl)cc2c1CCN(C)C` [ST1936] had an EC50 of 1.7 nM.
